Measured values as given in patent US20050147754A1, “Zirconium complex useful in a CVD method and a thin film preparation method using the complex” (Saes Getters S.p.A., priority 2002, published 2005).

Test: TG-DTA in dry air versus argon gas (oxidative degradation)
Conditions: onset of caloric value difference between dry air and argon gas, dDTA/dT, FIG. 3(b)

Compound	temperature at which oxidation reaction occurred
CC(C)C(=O)C=C([O][Zr]([O]C(=CC(=O)C(C)C)C(C)C)([O]C(=CC(=O)C(C)C)C(C)C)[O]C(=CC(=O)C(C)C)C(C)C)C(C)C [Zr(DIBM)4, zirconium tetrakis[diisobutyrylmethanate]]	about 130 °C
CC(C)(C)C(=O)C=C(O)C(C)(C)C.CC(C)(C)C(=O)C=C(O)C(C)(C)C.CC(C)(C)C(=O)C=C(O)C(C)(C)C.CC(C)(C)C(=O)C=C(O)C(C)(C)C.[Zr] [Zr(DPM)4, zirconium tetrakis[dipivaloylmethanate]]	about 280 °C
